Laboratory results from PMC12608337 (Molecules, 2025).

Tests used:
in vitro = conditions: African green monkey (Cercopithecus aethiops)
wt-YFV = assay type: cell-based, yellow fever virus
[1] = system: herpes simplex virus (type 1); conditions: cited from earlier work
[2] = system: dengue virus type 2 (DENV-2); conditions: cited from earlier work
Zika virus (ZIKV) = conditions: cited from earlier work
ZIKV = conditions: mouse, in vivo; cited from earlier work
Spodoptera littoralis = conditions: cited from earlier work

SMILES	CC50 (in vitro) [mM]	antiviral activity against wt-YFV (wt-YFV)	further results
N[C@@H](Cc1c[nH]c2ccccc12)C(=O)O [tryptophan]	0.578	did not reveal significant antiviral activity	–
C[n+]1cccc(C(=O)[O-])c1 [Trigonelline, trigonelline]	~1	did not reveal significant antiviral activity	inhibition of survival of herpes simplex virus (type 1) [1]: significantly inhibited the survival
NC(=O)C[C@H](N)C(=O)O [asparagine]	~1	did not reveal significant antiviral activity	–
N=C(N)NCCC[C@H](N)C(=O)O [arginine]	~1	did not reveal significant antiviral activity	–
COc1c2c(cc3c1OCO3)[C@@]13CCN(C2)[C@@H]1CC[C@H](O)[C@@H]3O [Bulbisine, bulbisine]	0.123	did not reveal significant antiviral activity	–
N[C@@H](CCC(=O)O)C(=O)O [glutamic acid]	–	did not reveal significant antiviral activity	–
O[C@H]1[C@H]2c3cc4c(cc3CN3CCC(=C[C@@H]1O)[C@H]23)OCO4 [lycorine]	–	–	antiviral activity against DENV-2 [2]: exhibits antiviral activity; antiviral activity against ZIKV (Zika virus (ZIKV)): exhibits antiviral activity; mortality (ZIKV): reduced mortality; viral load in the blood (ZIKV): lower viral load in the blood
COc1cc2c(cc1OC)[C@@H]1[C@H](O)[C@@H](OC)[C@H](OC(C)=O)C3=CCN(C2)[C@H]31 [3-O-acetyl-narcissidine, 3-O-acetylnarcissidine]	–	–	antifeedant effect (Spodoptera littoralis): exhibited an antifeedant effect
